Reference: US7439251B2, “Methods and compositions for treatment of central and peripheral nervous system disorders and novel compounds useful therefor” (Israel Institute for Biological Research, priority 2002, dated 2008)

Key:
tau = assay: Tau phosphorylation, AT8 immunoblot; format: cell-based; settings: 100 μM; to the control level
Excerpt: Following the experimental design of Sadot et al., J.Neurochem. […] By linking an M1 agonist to an antioxidant moiety tau phophorylation may be decreased, providing a new therapeutic strategy in a variety of CNS disease states due to combined damage due to oxidative stress and tau hyperphosphorylation.

[1] = test system: rat pheochromocytoma cells transfected with the M1 mAChR
ApoE = ApoE synthesis and secretion in rat primary type 1 astrocytes; format: cell-based; settings: 96 hrs; 0.1 nM
Description: Primary cultures of type 1 astrocytes were derived from the cortex of Sprague Dawley rats. The compounds tested were dissolved in the culture media and added to cells for 24, 48, 72 and 96 hrs. Media was then removed and kept frozen until ApoE protein levels were evaluated by immunoblot analysis as described in Poirier et al Neuroscience 55: 81-90 (1993).

[2] = Morris water maze in C57BL/10SnJ (small hippocampus) vs C57BL6J mice; format: in vivo; settings: for reversal test, swimming speed: normal hippocampi mice, AF150(S) 0.5 mg/kg, AF267B 1 mg/kg
Description: C57BL/10SnJ (B10) mice were selected due to their small hippocampi and decreased number of hippocampal pyramidal neurons; the cell loss seemed to be associated with poor spatial learning.
Each group of mice was randomly divided into 7 treatment groups (n=12-14/group). […] All tested compounds and saline were administered once a day for 4 days before starting the behavioral testing, and then for the duration of the 5-day experiment, 30 minutes before testing.
Training: Each mouse was trained for four consecutive days, four trials (one block) per day, in which the platform position remained constant and was located in the center of the southeast quadrant of the pool. Within each block of four trials, each mouse started at each of the starting locations, but the sequence of locations was randomly selected. A trial consisted of placing a mouse by hand into the water facing the wall of the pool at one of four starting locations, north, south, east or west, around the pool's perimeter. Escape latency (the time to find the platform), path length (the distance traveled by the mouse) and speed (the swimming rate of the mouse) were recorded on each trial by the monitoring system.
For each mouse, the path length, escape latency, and swimming speed of the four trials on each of the 4 training days were grouped into blocks (one block for each day). […] Specific comparisons were performed, using the simple main effects contrasts analysis, which is specifically suited for testing significant interactions.
Transfer test. During trial No. 17, on the fourth day, the platform was entirely removed from the pool (a probe trial). In this trial, the mouse was placed into the water for a limited period (30 s), and its spatial bias was measured by recording the relative distribution of escape latency and path length over the four quadrants of the pool.
Reversal test. During trials 18-21, on the fifth day, the platform position was changed to the northwest quadrant, opposite to the training quadrant Thus, during reversal learning, the platform location was moved relative to the configuration of objects within the room, but the pool occupied the same place within the room throughout the entire experiment. Testing of the […] and measures taken were the same as in training.
For each mouse, the escape latency, path length and swimming speed of the reversal test (trials No. 18-21) were grouped into one block.

[3] = small hippocampus mice, AF compounds 0.5 and 1 mg/kg i.p., rivastigmine, nicotine 1 mg/kg i.p.

CCC1SC2(CCN(C)CC2)N(C(=O)CCc2c[nH]c3ccccc23)C1=O (racemic) [AF704, 2-Ethyl-4(3-1H-indol-3-yl-propionyl)-8-methyl-1-thia-4,8-diaza-spiro[4.5]decan-3-one]
phosphorylated tau (AT8) (tau): induce dephosphorylation of tau proteins | β-A25-35-induced cytotoxicity [1]: more effective than carbachol and AF267B

CC1OC2(CS1)CN1CCC2CC1 (stereo not shown) [AF102B, reference compound]
inhibition of ApoE production (ApoE): inactive

CC[C@@H]1SC2(CCN(C)CC2)N(S(=O)(=O)c2ccc(F)cc2)C1=O [AF700, (S)-2-Ethyl-4-(4-fluoro-benzenesulfonyl)-8-methyl-1-thia-4,8diaza-spiro[4.5]decan-3-one]
β-A25-35-induced cytotoxicity [1]: more effective than carbachol and AF267B

CCC1SC2(CCN(C)CC2)N(CCc2c[nH]c3ccccc23)C1=O (stereo not shown) [AF703, 2-Ethyl-4-[2-(1H-indol-3-yl)ethyl]-8-methyl-1-thia-4,8-diaza-spiro[4.5]decan-3-one]
β-A25-35-induced cytotoxicity [1]: more effective than carbachol and AF267B

CN1CCCC1c1cccnc1 (stereo not shown) [nicotine, reference compound]
reversal test, swimming speed [2]: significantly decreased | training, escape latency ([2]; normal hippocampus mice): degraded the performance | training, swimming speed ([2]; normal hippocampus mice): significantly decreased the swimming speed | reversal test, escape latency ([2]; normal hippocampus mice, AF150(S) at 0.5 mg/kg): no significant effect | training, swimming speed ([2]; small hippocampus mice): Neither rivastigmine nor nicotine had any significant effect | transfer test, spatial bias ([2]; small hippocampus mice): only a partial spatial bias | training, escape latency [2, 3]: no improving effect

CCN(C)C(=O)Oc1cccc([C@H](C)N(C)C)c1 [rivastigmine, reference compound]
reversal test, swimming speed [2]: significantly decreased | training, swimming speed ([2]; normal hippocampus mice): significantly decreased the swimming speed | training, swimming speed ([2]; small hippocampus mice): Neither rivastigmine nor nicotine had any significant effect | transfer test, spatial bias ([2]; small hippocampus mice): complete spatial bias | training, path length ([2]; small hippocampus mice, AF150(S) both doses, AF267B the higher dose): positively affected the performance | training, escape latency [2, 3]: positively affected the training performance

(S)-Ethyl-4-(3-1H-indol-3-yl-propionyl)-8-methyl-1-thia-4,8-diaza-spiro[4.5]decan-3-one [AF704B]
phosphorylated tau (AT8) (tau): induce dephosphorylation of tau proteins
